Source: patent US6303596A, “Use of taurolidine for treatment of leukemias” (priority 2000, dated 2001)

How the values were obtained:
[1] = test system: K-562; assay: LDH release (cell membrane integrity), K-562; format: cell-based; details: Homo sapiens, K562, 4 h, read-out: LDH (% of total)
Method: (§1) FIGS. 6A and 6B depict cell viability and growth rates for K562 cell line following taurolidine treatment, in terms of % trypan blue negative cells and % cell number, respectively. Cells were treated with various concentrations of taurolidine for 4 hours in AIM-V+0.01% BCS. After aliquots were collected for LDH assay, the remainder of the culture was rinsed in HBSS and resuspended in RPMI+10% BCS without taurolidine. Counts of trypan blue-negative cells (FIG. 6A), and total cell number (FIG. 6B), were recorded daily thereafter (with the measurement at Day 1 being made immediately after the 4 hour taurolidine treatment). Conditions were: no treatment (open circles); 25 μg/ml taurolidine (closed circles); 50 μg/ml taurolidine (open squares); 100 μg/ml taurolidine (closed squares); and vehicle alone (closed triangles). Doubling times were determined under each condition, and expressed as a percentage of the rate of doubling of untreated cells. […]
In these experiments, integrity of cell membranes following taurolidine treatment was assessed by exclusion of trypan blue and by measuring the release of LDH in MM6, K-562, HL-60, and REH cells. […] A parallel aliquot of cells was lysed by three cycles of freeze/thaw and the quantity of LDH released was taken to be 100%. […]
^a LDH was measured immediately after four hour taurolidine treatment.

[2] = test system: ECV304 (endothelial cells); assay: growth rate (proliferation) after taurolidine treatment, ECV304; format: cell-based, human; details: ECV304, 50 and 100 μg/ml taurolidine
Method: as §1, with “10A” for “6A”, “10B” for “6B”, “ECV304” for “K562”, “10A),” for “6A),”, “10B),” for “6B),”, “cells. These values are located to the right of the growth curves in (FIG. 10B).” for “cells.”
HL-60 cells treated with 50 μl taurolidine. In these samples, LDH present in the culture medium was 8.3±2.3% of that released by completely lysed cells, compared with 2.3±0.8% measured in control cultures. […] After 4 hour treatment, cells were rinsed and returned to growth medium and monitored for viability and growth over the following 3 days. […]

[3] = test system: Monocytes; details: 24-hour taurolidine treatment; cited from earlier work
[4] = propidium iodide flow cytometry, PBMC all cells, whole blood; format: cell-based; details: human, mean ± SD of 2 experiments
Method: FIGS. 15A, 15B, and 15C depict TUNEL analysis of PBMC treated with taurolidine in whole blood, for control cells, taurolidine-treated cells, and anisomycin-treated cells, respectively . Cells were incubated with 500 μg/ml taurolidine for 4 hours, resuspended in fresh medium, incubated for two hours further and processed for TUNEL analysis. Parallel samples were stained with FITC-conjugated anti-CD14 and PI as described herein. Ten thousand events were recorded per sample. TUNEL signal (x -axis) is a measure of DNA fragmentation, while FSC (y-axis) is related to cell size. TUNEL-negative lymphocytes are bounded by rectangle R 1, while TUNEL-negative monocytes (CD 14 positive cells) are bounded by rectangle R2. […]
In the second method, DNA fragmentation was detected via TUNEL assay according to the manufacturer's instructions. With this methodology, 2×10^6 cells were fixed with 2% paraformaldehyde, permeabilized with 0.1% Triton X-100/0.1% citrate, incubated at 37° C. with terminal deoxynucleotidyl transferase and FITC-dUTP, rinsed and analyzed by flow cytometry. […] Parallel aliquots of unfixed cells were treated with PI and FITC-conjugated anti-CD14 and analyzed by flow cytometry, in order to identify cells with permeable cell membranes (since PI binds to DNA but is excluded from cells with intact plasma membranes) and also to determine the cell-specificity of the apoptotic signal. […]

[5] = test system: K-562; assay: growth rate after taurolidine treatment, K-562; format: cell-based, human
Method: FIGS. 6A and 6B depict cell viability and growth rates for K562 cell line following taurolidine treatment, in terms of % trypan blue negative cells and % cell number, respectively. Cells were treated with various concentrations of taurolidine for 4 hours in AIM-V+0.01% BCS. After aliquots were collected for LDH assay, the remainder of the culture was rinsed in HBSS and resuspended in RPMI+10% BCS without taurolidine. Counts of trypan blue-negative cells (FIG. 6A), and total cell number (FIG. 6B), were recorded daily thereafter (with the measurement at Day 1 being made immediately after the 4 hour taurolidine treatment). Conditions were: no treatment (open circles); 25 μg/ml taurolidine (closed circles); 50 μg/ml taurolidine (open squares); 100 μg/ml taurolidine (closed squares); and vehicle alone (closed triangles). Doubling times were determined under each condition, and expressed as a percentage of the rate of doubling of untreated cells. These values are located to the right of the growth curves in (FIG. 6B). Cells were subcultured when they reached a concentration of 6×10^5 cells/ml. Data are mean±SEM of three experiments.
In these experiments, integrity of cell membranes following taurolidine treatment was assessed by exclusion of trypan blue and by measuring the release of LDH in MM6, K-562, HL-60, and REH cells. Since BCS contains significant amounts of LDH, these experiments were conducted on cells cultured in AIM-V+0.01% BCS. Four hour treatment of cells was conducted in AIM-V containing 0.01% BCS in order to allow subsequent LDH assay without interference from BCS (which occurs in when normal culture medium, containing 10% BCS, is used). Thus, MM6 cells (5×10^5 cells/ml) were treated with taurolidine for four hours in AIM-V+0.01% BCS, after which an aliquot of the cell suspension was removed for measurement of LDH release. A parallel aliquot of cells was lysed by three cycles of freeze/thaw and the quantity of LDH released was taken to be 100%. Remaining cells were rinsed in HBSS and resuspended in growth medium for measurement of growth rates.
HL-60 cells treated with 50 μl taurolidine. In these samples, LDH present in the culture medium was 8.3±2.3% of that released by completely lysed cells, compared with 2.3±0.8% measured in control cultures. […] After 4 hour treatment, cells were rinsed and returned to growth medium and monitored for viability and growth over the following 3 days. Concentrations of taurolidine from 25 μg/ml to 100 μ/ml were used in order to highlight differences in sensitivity of cell lines to taurolidine.
^b Growth rate was measured over three days following treatment.

Question: For `O=S1(=O)CCN(CN2CCS(=O)(=O)NC2)CN1` [taurolidine, 4,4'-methylenebis(perhydro-1,2,4-thiadiazin 1,1-dioxide)], which cytotoxicity at 50 µg/mL ([1]; K-562, 50 μg/ml) is on record?
Answer: 6%

Question: And the cytotoxicity at 100 µg/mL ([1]; K-562, 100 μg/ml)?
Answer: 8%

Question: And the proliferation after treatment [2]?
Answer: inhibited proliferation

Question: What about the “LDH release by monocytes” value [3] of the same compound?
Answer: no increase in LDH release

Question: And the cytotoxicity at 6 h ([4]; 200 μg/ml)?
Answer: 1.6 ± 0.6%

Question: And the cytotoxicity at 6 h ([4]; 500 μg/ml)?
Answer: 1.4 ± 0.2%

Question: What about the activity at 50 µg/mL ([5]; Homo sapiens, K562, 72 h, K-562, 50 μg/ml for 4 h, growth over three days, read-out: growth rate (% of control)) of the same compound?
Answer: 52%

Question: What about the activity at 100 µg/mL ([5]; Homo sapiens, K562, 72 h, K-562, 100 μg/ml for 4 h, growth over three days, read-out: growth rate (% of control)) of the same compound?
Answer: 0%

Question: What about the “sensitivity of cell growth among cell lines” value ([5]; K562) of the same compound?
Answer: least affected

Question: And the “growth after taurolidine treatment” value ([5]; K562, 50 μg/ml or greater)?
Answer: inhibition of growth
